Tested on: equol production in the intestines
Test: Equol production accelerating effect in rats: equol concentration in blood plasma after 5 weeks of sample-mixed feed
Format: in vivo, SD rats
Details: week 5
Text: Calcium lactobionate (manufactured by Sigma Aldrich) was mixed with a rat powder feed (CRF-1, manufactured by Oriental Yeast Co., Ltd.) to a concentration of 0, 0.5 or 3.0% by weight. Also, as comparative controls, a 1.5% by weight difructose-dianhydride III (DFA-III) (manufactured by Wako Pure Chemical Industries, Ltd)-mixed powder feed and a 1.5% by weight fructo-oligosaccharide (FOS) (manufactured by Wako Pure Chemical Industries, Ltd)-mixed powder feed were used.
Acclimatization rearing of 3 animals per group of 5-week-old SD rats (manufactured by Clea Japan, Inc.) was carried out for 1 week by allowing to freely ingest the powder feed CRF-1 and water. The time of completion of the acclimatization rearing was regarded as the […] Starting from the week 0, respective groups were allowed to freely ingest the calcium lactobionate-mixed powder feed prepared in the above. The control groups were allowed to ingest a general powder feed.
The conjugated soybean isoflavone presenting in the rat blood plasma was converted into its free state using β-glucuronidase, and then equol was measured using an LC/MS/MS system. As the instruments for analysis, HP1100 Series, Agilent Technologies, was used in the LC, and Quattro-Ultima, Micromass was used in the MS/MS. […]

O=C([O-])[C@H](O)[C@@H](O)[C@H](O[C@@H]1O[C@H](CO)[C@H](O)[C@H](O)[C@H]1O)[C@H](O)CO.O=C([O-])[C@H](O)[C@@H](O)[C@H](O[C@@H]1O[C@H](CO)[C@H](O)[C@H](O)[C@H]1O)[C@H](O)CO.[Ca+2] [calcium lactobionate, Calcium lactobionate]
equol concentration in blood plasma, times of the control group (calcium lactobionate-mixed powder feed (0.5 or 3.0% by weight), free ingestion): 2 to 3 times of the control group | equol concentration in blood plasma compared to the DFA-III and fructo-oligosaccharide (mixed powder feed): high

From patent publication US8822432B2, “Equol production accelerating composition” (Unitika Ltd., priority 2006, dated 2014)
